Read-outs that look alike come from different tables or passages of the source.

The subject of one series is HCV Replicon. As to the kind of experiment: HCV Replicon Luciferase Assay. It counts as cell-based, Hepatitis C virus. Conditions: Huh-Luc-Neo cells, 48 h incubation, luciferase reporter, read-out: Replicon Inhibition*, Luciferase. On the procedure: The identification of inhibitors of HCV replication and/or proliferation has been facilitated by the development of a cell-based system to study HCV replication. Inhibition of HCV replication may be performed using the HCV Replicon Assay developed in the laboratories of Bartenschlager (Lohman et al, Science 285, 110-113, 1999) and Rice (Blight et al, Science 290, 1972-1974, 2000). The assay is performed using the Huh-Luc-Neo cell line (Lohman et al, Science 285, 110-113, 1999). Huh-Luc-Neo cells are a human hepatoma cell line (Huh-7) stably expressing a bi-cistronic subgenomic replicon containing the HCV IRES in which the structural proteins of HCV have been deleted and replaced by a construct containing sequences coding for the firefly luciferase reporter gene, the neomycin selectable marker and the EMCV IRES to direct expression of a truncated HCV genome expressing the […] NS3, NS4A, NS4B, NS5A, and NS5B. HCV targets through which inhibitors could act to inhibit replication include the NS3 protease, the helicase/ATPase, NS5A, the NS5B-RNA dependent RNA polymerase, and the HCV IRES.
(§1) Expression of HCV IRES driven luciferase reporter activity and HCV RNA is measured to obtain indirect and direct measures of replication of HCV RNA respectively. Inhibitors of HCV replication and/or proliferation are determined by initially identifying molecules that inhibit expression of the HCV IRES driven luciferase reporter in this HCV Replicon Luciferase Assay. Cell viability assays and control cell based luciferase assays are then run on hits identified in the HCV Replicon Luciferase Assay to eliminate cytoxic compounds and non-specific compounds which act by inhibiting the luciferase enzyme.
Day 0, Cell Seeding and Compound Treatment: Huh-Luc-Neo Cells are seeded at 25,000/well in an opaque-walled 96 plate with Growth Medium (DMEM phenol red free+PS+2 mM glutamine; 100 μl/well). The compounds to be tested are added to the experimental wells (10 μl/well at 10× assay concentration) and the cells are then incubated (5% CO2, 37° C.) for 48 h.
Day 2, Reagent Preparation and Luciferase Assay: The Bright-Glo Luciferase Assay Buffer (Promega) is thawed and equilibrated to room temperature prior to use. The lyophilized Bright-Glo Luciferase Assay Substrate is equilibrated to room temperature prior to use. 10 ml of Bright-Glo Luciferase Assay Buffer is transferred to 1 vial of Bright-Glo Luciferase Assay Substrate bottle and mixed by gently with a Vortex. 100 μl of Bright-Glo Luciferase Assay reagent (Bright-Glo Luciferase Assay Buffer+Bright-Glo Luciferase Assay Substrate Mixture) is added to each well. The well contents are mixed for 5 min. on an orbital shaker at room temperature to induce cell lysis and the luminescence is then measured using a luminometer. The data is analyzed and IC50s are determined using GraphPad Prism 4 software. Hits validated in the Replicon Luciferase assay have IC50s<8.0 μM and show <30% inhibition of Cell Viability at a compound concentration of 100 μM (Cell Titer Glow Assay, cell viability assay conditions identical to HCV Replicon Luciferase Assay conditions).

The next series deals with HCV RNA. In words: HCV Replicon RNA Assay (Taqman). The conditions noted are these: Huh-Luc-Neo cells, compound re-added at 24 h, HCV RNA by quantitative PCR, read-out: Replicon Inhibition*, Taqman. It counts as cell-based, Hepatitis C virus. On the procedure: as §1
Day 0, Cell Seeding and Compound Treatment: Huh-Luc-Neo Cells are seeded at 25,000/well in an opaque-walled 96 plate with Growth Medium (DMEM phenol red free+PS+2 mM glutamine; 100 μl/well). The compounds to be tested are added to the experimental wells (10 μl/well at 10× assay concentration) and the cells are then incubated (5% CO2, 37° C.).
Day 1, Media Change and Compound Treatment: 24 hours after the initial compound treatment the cell culture media is aspirated from the wells and fresh Growth Medium is added (DMEM phenol red free+PS+2 mM glutamine; 100 μl/well). The compounds to be tested are then added to the appropriate experimental wells (10 μl/well at 10× assay concentration) and the cells are then incubated (5% CO2, 37° C.) for an additional 24 hrs.
Day 2, RNA Isolation and cDNA Synthesis: The cells are washed with 1× Phosphate Buffered Saline (PBS) once.
Day 3, Quantitative PCR Based Measurement of HCV RNA (Taqman Assay): Quantitative PCR analysis to measure HCV RNA expression from cDNA synthesized on Day 2 is performed using the ABI 9700 HT Sequence Detection System (Applied Biosystems) as previously described (Lohman et al, Science 285, 110-113, 1999). The data is analyzed and IC50s are determined using GraphPad Prism 4 software. Hits validated in the Replicon RNA Assay have IC50s<8.0 μM and show <30% inhibition of Cell Viability at a compound concentration of 50 μM (Cell Titer Glow Assay, cell viability assay conditions identical to HCV Replicon RNA Assay conditions).

In a further series the test system is Huh-Luc-Neo Cells. In words: CellTiter-Glo Cell Viability Assay. It counts as cell-based, human. Conditions: 48 h, read-out: Cytotoxicity*. On the procedure: (§2) Day 0, Cell Seeding and Compound Treatment: Huh-Luc-Neo Cells are seeded at 25,000/well in an opaque-walled 96 plate with Growth Medium (DMEM phenol red free+PS+2 mM glutamine; 100 ul/well). The compounds to be tested for inhibition of cell viability are added to the experimental wells (10 μl/well at 10× assay concentration) and the cells are then incubated (5% CO2, 37° C.) for 48 h.
(§3) Day 2, Reagent Preparation and Assay: The CellTiter-Glo Buffer is thawed and equilibrated to room temperature prior to use. The lyophilized CellTiter-Glo Substrate is equilibrated to room temperature prior to use. 10 ml of CellTiter-Glo Buffer is transferred to 1 vial of CellTiter-Glo Substrate and mixed by gently with a Vortex. 100 μl of CellTiter-Glo Assay reagent (CellTiter-Glo Buffer+CellTiter-Glo Substrate Mixture) is added to each well. The well contents are mixed for 5 min. on an orbital shaker at room temperature to induce cell lysis and the luminescence is then measured using a luminometer.
On the technique in general: Cellular ATP, detected with luciferase, serves as a proxy for viable cell number.

The nature of series [1]: CellTiter-Glo Cell Viability Assay. It counts as cell-based, human. The conditions noted are these: human, Huh-Luc-Neo cells, read-out: Cytotoxicity*. On the procedure: as §2, §3

Take `Cn1c(=O)cc(Sc2ccccc2F)c2ccccc21` [compound 005]: the results for the IC50 with HCV Replicon (Hepatitis C virus), in the series with HCV RNA (Hepatitis C virus) and with Huh-Luc-Neo Cells were 1000 to 10000 nM, 1000 to 10000 nM and 10000 to 100000 nM, respectively.
On to `Cn1c(=O)cc(Sc2ccccc2F)c2ccccc21` [compound 008], for which the IC50 in the series on HCV Replicon was 1000 to 10000 nM; with HCV RNA it was 1000 to 10000 nM; with Huh-Luc-Neo Cells, over 100000 nM.
As for `Cc1ccc2c(c1)c(Sc1ccc(N)cc1)cc(=O)n2C` [compound 033], the IC50 in the series with HCV Replicon (Hepatitis C virus) and in the series on HCV RNA (Hepatitis C virus) was under 1000 nM each time. Besides, the IC50 at 48 h in series [1] is over 100000 nM.
Consider `Cc1ccc(Sc2cc(=O)n(C)c3cc(C)c(C)cc23)cc1` [compound 034], for which the IC50 with HCV Replicon (Hepatitis C virus) and with HCV RNA (Hepatitis C virus) was under 1000 nM in each case. Further, the IC50 at 48 h in series [1] is over 100000 nM.
Consider `Cc1cc2c(Sc3ccc(N)cc3)cc(=O)n(C)c2cc1C` [compound 035], for which the IC50 in the series on HCV Replicon (Hepatitis C virus) and in the series on HCV RNA (Hepatitis C virus) was under 1000 nM each time. Also, the IC50 at 48 h in series [1] was over 100000 nM.
Turning to `Cc1ccc(NC(=S)Nc2ccc(Sc3cc(=O)n(C)c4ccc(C)cc34)cc2)cc1` [compound 036], the IC50 in the series on HCV Replicon (Hepatitis C virus) and in the series with HCV RNA (Hepatitis C virus) was 1000 to 10000 nM in each case. Besides, the IC50 at 48 h in series [1] was over 100000 nM.
For the molecule `Cc1cc2c(Sc3ccc(F)cc3)cc(=O)n(C)c2cc1C` [compound 037], the IC50 in the series on HCV Replicon (Hepatitis C virus) and in the series on HCV RNA (Hepatitis C virus) was under 1000 nM each time. The IC50 at 48 h in series [1] was over 100000 nM.
In the case of `CCc1ccc2c(c1)c(Sc1ccc(N)cc1)cc(=O)n2C` [compound 038], the IC50 in the series with HCV Replicon (Hepatitis C virus) and in the series on HCV RNA (Hepatitis C virus) was under 1000 nM throughout. In addition, the IC50 at 48 h in series [1] was over 100000 nM.

For the origin of these results see US8143276B2, “4-thio substituted quinoline and naphthyridine compounds” (XTL Biopharmaceuticals Ltd., priority 2007, dated 2012).
